This is an account of results in patent US10660877B2 (BRISTOL-MYERS SQUIBB COMPANY, priority 2016, dated 2020).

Some results are limits rather than exact numbers.

The target in one experiment is human TLR7 (Homo sapiens (Human), UniProt Q9NYK1). Briefly: TLR7 inhibition reporter assay (HEK-Blue cells, SEAP reporter, gardiquimod stimulation). The experiment is classed as cell-based. The note with it: HEK-Blue cells overexpressing human TLR7, gardiquimod 7.5 μM. Background: Reporter assays use an easily measured gene product as a stand-in for the process of interest.

The next experiment has as its target human TLR9 (Homo sapiens (Human), UniProt Q9NR96). The experiment is described as follows: TLR9 inhibition reporter assay (HEK-Blue cells, SEAP reporter, ODN2006 stimulation).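 Further: compounds tested over 0.05 nM to 50 µM, 22 h incubation, inhibition taken as SEAP signal drop from agonist plus DMSO wells toward a known inhibitor control.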 The following applies: read-out: TLR9 IC50, HEK-Blue cells overexpressing human TLR9, ODN2006 5 nM.
In another experiment the target is human TLR8 (Homo sapiens (Human), UniProt Q9NR97). The experiment is described as follows: TLR8 inhibition reporter assay (HEK-Blue cells, SEAP reporter, R848 stimulation).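 Further: compounds tested from 0.05 nM to 50 µM, 22 h at 37 °C, SEAP measured with HEK-Blue Detection, inhibition relative to agonist plus DMSO versus a known inhibitor.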 The following applies: read-out: TLR8 IC50, HEK-Blue cells overexpressing human TLR8, R848 15.9 μM.
human TLR8, sequence (Q9NR97 27-1041): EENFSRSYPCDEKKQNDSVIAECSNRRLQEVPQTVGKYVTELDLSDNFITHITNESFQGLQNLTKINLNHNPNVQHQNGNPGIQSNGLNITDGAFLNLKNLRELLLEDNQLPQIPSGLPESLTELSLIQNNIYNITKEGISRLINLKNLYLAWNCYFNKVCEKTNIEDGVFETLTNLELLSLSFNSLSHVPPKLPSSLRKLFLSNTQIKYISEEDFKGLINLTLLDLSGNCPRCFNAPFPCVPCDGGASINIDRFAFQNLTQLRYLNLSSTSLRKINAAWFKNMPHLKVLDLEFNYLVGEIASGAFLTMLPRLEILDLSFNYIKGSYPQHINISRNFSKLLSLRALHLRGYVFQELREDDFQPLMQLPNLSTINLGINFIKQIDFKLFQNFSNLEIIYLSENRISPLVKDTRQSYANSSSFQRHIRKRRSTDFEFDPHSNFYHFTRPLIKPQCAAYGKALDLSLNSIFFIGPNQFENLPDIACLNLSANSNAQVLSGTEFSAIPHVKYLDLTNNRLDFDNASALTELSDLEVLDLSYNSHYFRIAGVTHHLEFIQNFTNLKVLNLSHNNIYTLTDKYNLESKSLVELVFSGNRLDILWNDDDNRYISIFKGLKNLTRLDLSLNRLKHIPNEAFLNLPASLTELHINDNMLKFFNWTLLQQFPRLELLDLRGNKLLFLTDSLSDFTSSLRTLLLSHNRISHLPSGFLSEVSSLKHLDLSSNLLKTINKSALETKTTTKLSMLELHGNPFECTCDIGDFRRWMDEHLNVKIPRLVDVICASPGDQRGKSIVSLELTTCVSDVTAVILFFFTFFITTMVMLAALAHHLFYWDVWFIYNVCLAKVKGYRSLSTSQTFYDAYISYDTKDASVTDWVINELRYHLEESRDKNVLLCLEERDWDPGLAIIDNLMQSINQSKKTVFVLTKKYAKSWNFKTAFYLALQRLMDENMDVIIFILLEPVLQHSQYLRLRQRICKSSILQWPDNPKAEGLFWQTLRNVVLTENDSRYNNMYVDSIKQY

human TLR9, sequence (Q9NR96 26-1032): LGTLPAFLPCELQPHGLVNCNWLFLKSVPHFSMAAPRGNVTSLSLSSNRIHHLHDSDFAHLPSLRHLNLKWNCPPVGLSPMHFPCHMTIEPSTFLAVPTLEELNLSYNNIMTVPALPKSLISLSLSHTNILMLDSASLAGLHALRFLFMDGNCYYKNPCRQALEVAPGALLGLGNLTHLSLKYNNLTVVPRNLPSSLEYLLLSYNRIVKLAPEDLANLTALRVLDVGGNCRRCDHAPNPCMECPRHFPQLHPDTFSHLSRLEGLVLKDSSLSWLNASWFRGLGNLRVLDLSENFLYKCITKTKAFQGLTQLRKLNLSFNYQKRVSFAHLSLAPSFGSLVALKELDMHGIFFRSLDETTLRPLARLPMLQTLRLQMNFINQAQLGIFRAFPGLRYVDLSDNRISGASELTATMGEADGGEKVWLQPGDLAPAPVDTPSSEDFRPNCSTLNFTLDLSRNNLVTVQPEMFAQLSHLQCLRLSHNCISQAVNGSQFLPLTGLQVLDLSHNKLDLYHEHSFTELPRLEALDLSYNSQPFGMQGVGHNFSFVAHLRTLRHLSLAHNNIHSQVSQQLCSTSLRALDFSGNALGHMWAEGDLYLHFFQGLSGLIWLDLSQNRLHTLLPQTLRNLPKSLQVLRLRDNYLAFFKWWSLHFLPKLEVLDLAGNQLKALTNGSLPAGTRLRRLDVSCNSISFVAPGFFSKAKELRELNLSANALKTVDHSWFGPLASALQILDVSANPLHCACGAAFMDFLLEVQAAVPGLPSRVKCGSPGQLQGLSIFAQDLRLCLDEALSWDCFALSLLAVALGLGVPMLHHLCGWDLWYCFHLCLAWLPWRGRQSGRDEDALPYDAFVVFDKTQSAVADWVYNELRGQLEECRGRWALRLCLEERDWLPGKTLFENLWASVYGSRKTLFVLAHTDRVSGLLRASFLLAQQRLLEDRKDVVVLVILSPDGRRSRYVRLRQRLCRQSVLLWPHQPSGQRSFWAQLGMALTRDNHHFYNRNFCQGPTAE
human TLR7, sequence (Q9NYK1 27-1049): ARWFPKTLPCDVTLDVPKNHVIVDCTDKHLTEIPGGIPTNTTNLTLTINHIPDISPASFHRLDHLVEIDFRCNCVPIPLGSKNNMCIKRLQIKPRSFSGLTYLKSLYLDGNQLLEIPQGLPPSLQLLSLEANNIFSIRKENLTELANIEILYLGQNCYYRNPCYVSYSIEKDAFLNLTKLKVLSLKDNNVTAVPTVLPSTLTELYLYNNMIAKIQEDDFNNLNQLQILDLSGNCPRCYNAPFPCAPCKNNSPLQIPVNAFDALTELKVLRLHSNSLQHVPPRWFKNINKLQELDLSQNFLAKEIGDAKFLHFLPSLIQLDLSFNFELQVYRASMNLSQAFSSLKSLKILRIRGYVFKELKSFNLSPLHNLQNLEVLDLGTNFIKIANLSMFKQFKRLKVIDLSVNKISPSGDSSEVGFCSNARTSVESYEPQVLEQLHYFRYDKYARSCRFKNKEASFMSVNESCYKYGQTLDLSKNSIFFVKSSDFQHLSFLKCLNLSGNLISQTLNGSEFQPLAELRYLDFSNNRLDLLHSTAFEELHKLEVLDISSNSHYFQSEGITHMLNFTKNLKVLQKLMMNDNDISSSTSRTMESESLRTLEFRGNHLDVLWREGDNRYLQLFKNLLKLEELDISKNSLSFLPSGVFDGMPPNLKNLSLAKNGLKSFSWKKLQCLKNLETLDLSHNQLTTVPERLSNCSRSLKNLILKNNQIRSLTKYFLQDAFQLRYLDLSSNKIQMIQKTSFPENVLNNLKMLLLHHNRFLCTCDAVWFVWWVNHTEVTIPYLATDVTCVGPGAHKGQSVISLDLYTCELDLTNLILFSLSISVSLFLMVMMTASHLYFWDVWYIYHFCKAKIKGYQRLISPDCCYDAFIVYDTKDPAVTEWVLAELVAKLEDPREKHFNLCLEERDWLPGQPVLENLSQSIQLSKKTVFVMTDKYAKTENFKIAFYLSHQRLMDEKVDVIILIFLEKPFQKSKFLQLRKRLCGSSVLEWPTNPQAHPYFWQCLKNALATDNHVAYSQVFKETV

The term IC50 denotes the concentration that gives 50% inhibition. Turning to `Cc1cc(-c2[nH]c3ccc(C4CCNCC4)cc3c2C(C)C)c(C)c(C)n1` [Example 39, 3-isopropyl-5-(piperidin-4-yl)-2-(2,3,6-trimethylpyridin-4-yl)-1H-indole], the half-inhibitory concentration (IC50) turned out to be 7.2 nM against human TLR7, 955 nM at human TLR9 and 22.3 nM on human TLR8.
For `Cc1cc(-c2[nH]c3ccc(C4CCNCC4)cc3c2C(C)C)c(Br)c(C)n1` [Example 40, 2-(3-bromo-2,6-dimethylpyridin-4-yl)-3-isopropyl-5-(piperidin-4-yl)-1H-indole], the IC50 turned out to be 16.5 nM against human TLR7, 1480 nM at human TLR9 and 4.1 nM at human TLR8.
Take `Cc1cc(-c2[nH]c3ccc(C4CCNCC4)cc3c2C(C)C)c(CO)cn1` [Example 42, (4-(3-isopropyl-5-(piperidin-4-yl)-1H-indol-2-yl)-6-methylpyridin-3-yl)methanol]: the half-inhibitory concentration (IC50) is 52.7 nM at human TLR7, 897 nM on human TLR9 and 2.5 nM at human TLR8.
Consider `Cc1nccc(-c2[nH]c3ccc(C4CCNCC4)cc3c2C(C)C)c1Cl` [Example 44, 2-(3-chloro-2-methylpyridin-4-yl)-3-isopropyl-5-(piperidin-4-yl)-1H-indole], for which the 50% inhibitory concentration (IC50) against human TLR7 is 13.9 nM; on human TLR9, 1640 nM; on human TLR8, 14.4 nM.
As for `COc1cc(-c2[nH]c3ccc(C4CCNCC4)cc3c2C(C)C)c(F)cn1` [Example 47, 2-(5-fluoro-2-methoxypyridin-4-yl)-3-isopropyl-5-(piperidin-4-yl)-1H-indole], the IC50 at human TLR7 turned out to be 9 nM; at human TLR9, 3500 nM; on human TLR8 it was 36.2 nM.
With `Cc1cc(-c2[nH]c3ccc(C4CCNCC4)cc3c2C(C)C)c(Cl)c(C)n1` [Example 50, 2-(3-chloro-2,6-dimethylpyridin-4-yl)-3-isopropyl-5-(piperidin-4-yl)-1H-indole], the IC50 on human TLR7 came to 3.2 nM; on human TLR9 it was 12700 nM; on human TLR8, 1.9 nM.
For the molecule `Cc1cc(-c2[nH]c3ccc(C4CCNCC4)cc3c2C(C)C)c(F)c(C)n1` [Example 51, 2-(3-fluoro-2,6-dimethylpyridin-4-yl)-3-isopropyl-5-(piperidin-4-yl)-1H-indole], the IC50 against human TLR7 amounted to 1 nM; on human TLR9, 775 nM; at human TLR8 it was 2.5 nM.
On to `Cc1nccc(-c2[nH]c3ccc(C4CCNCC4)cc3c2C(C)C)c1F` [Example 53, 2-(3-fluoro-2-methylpyridin-4-yl)-3-isopropyl-5-(piperidin-4-yl)-1H-indole], for which the figures for the half-inhibitory concentration (IC50) on human TLR7, on human TLR9 and at human TLR8 were 2.9 nM, 2300 nM and 1.2 nM, respectively.
For `Cc1cc(-c2[nH]c3ccc(C4CCNCC4)cc3c2C(C)C)cc(C)[n+]1[O-]` [Example 56, 2-(2,6-dimethyl-1-(l1-oxidanyl)-1l4-pyridin-4-yl)-3-isopropyl-5-(piperidin-4-yl)-1H-indole], in that order: 4.6 nM, 804 nM and 23.9 nM.
For `COc1c(-c2[nH]c3ccc(C4CCNCC4)cc3c2C(C)C)cc[n+]([O-])c1C` [Example 57], in that order: 489 nM, 1770 nM and 281 nM.
For `CC(C)c1c(-c2ccnc(C(C)(C)O)c2)[nH]c2ccc(C3CCNCC3)cc12` [Example 58, 2-(4-(3-isopropyl-5-(piperidin-4-yl)-1H-indol-2-yl)pyridin-2-yl)propan-2-ol], in that order: 31.2 nM, 888 nM and 667 nM.
Regarding `CCc1c(-c2ccncc2)[nH]c2ccc(C3CCNCC3)cc12` [Example 60, 3-ethyl-5-(piperidin-4-yl)-2-(pyridin-4-yl)-1H-indole], the results for the IC50 against human TLR7, on human TLR9 and at human TLR8 were 96.3 nM, 671 nM and 36.8 nM, respectively.
For `CCc1c(-c2ccnc(OC)c2)[nH]c2ccc(C3CCNCC3)cc12` [Example 61, 3-ethyl-2-(2-methoxypyridin-4-yl)-5-(piperidin-4-yl)-1H-indole], in that order: 207 nM, 2370 nM and 58.8 nM.
The matching figures for `CCc1c(-c2ccnc(Cl)c2)[nH]c2ccc(C3CCNCC3)cc12` [Example 62, 2-(2-chloropyridin-4-yl)-3-ethyl-5-(piperidin-4-yl)-1H-indole]: 22 nM, 2100 nM and 19.4 nM.
For `CCc1c(-c2ccnc(C#N)c2)[nH]c2ccc(C3CCNCC3)cc12` [Example 64, 4-(3-ethyl-5-(piperidin-4-yl)-1H-indol-2-yl)picolinonitrile], in that order: 95.6 nM, 895 nM and 61.8 nM.
Take `CCc1c(-c2ccnc(-c3noc(N)n3)c2)[nH]c2ccc(C3CCNCC3)cc12` [Example 65, 3-(4-(3-ethyl-5-(piperidin-4-yl)-1H-indol-2-yl)pyridin-2-yl)-1,2,4-oxadiazol-5-amine]: the 50% inhibitory concentration (IC50) was determined as 2180 nM against human TLR7, 1630 nM on human TLR9 and 550 nM on human TLR8.
For `CCc1c(-c2ccnc(-c3nnc[nH]3)c2)[nH]c2ccc(C3CCNCC3)cc12` [Example 66, 2-(2-(4H-1,2,4-triazol-3-yl)pyridin-4-yl)-3-ethyl-5-(piperidin-4-yl)-1H-indole], in that order: 1230 nM, 554 nM and 159 nM.
In the case of `CCc1c(-c2ccnc(-n3ccnc3)c2)[nH]c2ccc(C3CCNCC3)cc12` [Example 67, 2-(2-(1H-imidazol-1-yl)pyridin-4-yl)-3-ethyl-5-(piperidin-4-yl)-1H-indole], the results for the IC50 against human TLR7, on human TLR9 and on human TLR8 were 1010 nM, 396 nM and 9 nM, respectively.
For `CCc1c(-c2ccnc(NC(C)=O)c2)[nH]c2ccc(C3CCNCC3)cc12` [Example 68, N-(4-(3-ethyl-5-(piperidin-4-yl)-1H-indol-2-yl)pyridin-2-yl)acetamide], the IC50 against human TLR7 turned out to be 4190 nM; on human TLR9, 1030 nM; at human TLR8, 1030 nM.
In the case of `CCc1c(-c2ccnc(N)c2)[nH]c2ccc(C3CCNCC3)cc12` [Example 69, 4-(3-ethyl-5-(piperidin-4-yl)-1H-indol-2-yl) pyridin-2-amine], the figures for the IC50 at human TLR7, on human TLR9 and on human TLR8 were 277 nM, 114 nM and 181 nM, respectively.
The matching figures for `CCc1c(-c2ccnc(C)c2C)[nH]c2ccc(C3CCNCC3)cc12` [Example 70, 2-(2,3-dimethylpyridin-4-yl)-3-ethyl-5-(piperidin-4-yl)-1H-indole]: 120 nM, 1110 nM and 47.2 nM.
With `CCc1c(-c2ccnc(N)c2O)[nH]c2ccc(C3CCNCC3)cc12` [Example 71, 2-amino-4-(3-ethyl-5-(piperidin-4-yl)-1H-indol-2-yl)pyridin-3-ol], the 50% inhibitory concentration (IC50) amounted to 7200 nM against human TLR7, 2830 nM on human TLR9 and 5640 nM on human TLR8.
In the case of `Cc1cc(-c2[nH]c3cc(C(F)(F)F)c(C4CCNCC4)cc3c2C(C)C)ccn1` [Example 74, 3-isopropyl-2-(2-methylpyridin-4-yl)-5-(piperidin-4-yl)-6-(trifluoromethyl)-1H-indole], the IC50 was found to be 13.1 nM against human TLR7, 1160 nM on human TLR9 and 437 nM at human TLR8.
In the case of `Cc1cc(-c2[nH]c3ccc(C4CCNCC4)c(F)c3c2C(C)C)ccn1` [Example 76, 4-fluoro-3-isopropyl-2-(2-methylpyridin-4-yl)-5-(piperidin-4-yl)-1H-indole], the IC50 against human TLR7 turned out to be 1.4 nM; on human TLR9 it was 440 nM; at human TLR8, 2.7 nM.
The matching figures for `Cc1cc(-c2[nH]c3cc(F)c(C4CCNCC4)cc3c2C(C)C)cc(C)n1` [Example 78, 2-(2,6-dimethylpyridin-4-yl)-6-fluoro-3-isopropyl-5-(piperidin-4-yl)-1H-indole]: 0.8 nM, 145 nM and 2.7 nM.
With `Cc1cc(-c2[nH]c3cc(F)c(C4CCNCC4)cc3c2C(C)C)c(F)cn1` [Example 79, 6-fluoro-2-(5-fluoro-2-methylpyridin-4-yl)-3-isopropyl-5-(piperidin-4-yl)-1H-indole], the values for the half-inhibitory concentration (IC50) on human TLR7, at human TLR9 and at human TLR8 were 1.5 nM, 1350 nM and 2 nM, respectively.
The matching figures for `Cc1cc(-c2[nH]c3cc(F)c(C4CCNCC4)cc3c2C(C)C)c(C)cn1` [Example 80, 2-(2,5-dimethylpyridin-4-yl)-6-fluoro-3-isopropyl-5-(piperidin-4-yl)-1H-indole]: 2.7 nM, 583 nM and 1.3 nM.
The matching figures for `CCc1c(-c2ccnc(C)c2)[nH]c2c(F)cc(C3CCNCC3)cc12` [Example 81, 3-ethyl-7-fluoro-2-(2-methylpyridin-4-yl)-5-(piperidin-4-yl)-1H-indole]: 614 nM, 696 nM and 907 nM.
For `Cc1cc(-c2[nH]c3ccc(C4CCNCC4)cc3c2CC(F)F)ccn1` [Example 84, 3-(2,2-difluoroethyl)-2-(2-methylpyridin-4-yl)-5-(piperidin-4-yl)-1H-indole], in that order: 75.9 nM, 464 nM and 39.4 nM.
On to `Cc1cc(-c2[nH]c3ccc(C4CCNCC4)cc3c2C(C)(C)C)ccn1` [Example 86, 3-(tert-butyl)-2-(2-methylpyridin-4-yl)-5-(piperidin-4-yl)-1H-indole], for which the half-inhibitory concentration (IC50) was 23600 nM at human TLR7, 2550 nM at human TLR9 and over 50000 nM on human TLR8.
`Cc1cc(-c2[nH]c3ccc(C4CCNCC4)cc3c2C2CC2)ccn1` [Example 88, 3-cyclopropyl-2-(2-methylpyridin-4-yl)-5-(piperidin-4-yl)-1H-indole]: the IC50 at human TLR7 was 11.9 nM; on human TLR9, 71 nM; at human TLR8, 7 nM.
